Test results: US10508085B2, “Compounds and methods for IDO and TDO modulation, and indications therefor” (Plexxikon Inc., priority 2016, dated 2019)

Tests used:
[1] = target: T1, Human Indoleamine 2,3-dioxygenase (IDO) (Homo sapiens, UniProt P14902); experiment: Human IDO enzymatic assay (kynurenine level); assay type: biochemical; conditions: 6 nM IDO, 10 μM L-Trp; geometric mean; read-out: IDO1 GMean: IC50 (μM) (Biochemical Assay)
T1 construct: His tag (N); made in house; host or cells: E. coli
In short: (§1)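 N-His human IDO (6 nM, 10 μM L-Trp, 5 μM methylene blue, 20 min) or TDO (1 nM, 350 μM L-Trp, 0.4 μM methylene blue, 70 min) run at room temp in pH 6.5 phosphate with ascorbate, catalase, Tween 20. TCA stop, 30 min 50 °C converts N-formylkynurenine to kynurenine; IC50 by nonlinear regression.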

[2] = target: T2, Human Tryptophan 2,3-dioxygenase (TDO) (Homo sapiens, UniProt P48775); experiment: Human TDO enzymatic assay (kynurenine level); assay type: biochemical; conditions: 1 nM TDO, 350 μM L-Trp; geometric mean; read-out: TDO GMean: IC50 (μM) (Biochemical Assay)
T2 construct: His tag (N); made in house; host or cells: E. coli
In short: as §1

[3] = target: T3, human IDO (IDO1-expressing HEK293 cells) (Homo sapiens, UniProt P14902); experiment: Cell based kynurenine assay, IDO1-expressing HEK293 cell clones; conditions: IDO1-expressing HEK293 cells, 24 hours incubation; geometric mean; read-out: HEK293 IDO1 Kynurenine GMean IC50 (μM) (Cellular Assay)
T3 construct: expressed in transfected cells
In short: (§2)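 HEK293 stable clones (hIDO1 or hTDO, CMV-driven; G418-selected); 2.5×10^4 cells/well; compound serial dilution, 24 h, 37 °C, 5% CO2; supernatant kynurenine; IC50 by nonlinear fit.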

[4] = target: T4, human TDO (TDO-expressing HEK293 cells) (Homo sapiens, UniProt P48775); experiment: Cell based kynurenine assay, TDO-expressing HEK293 cell clones; conditions: TDO-expressing HEK293 cells, 24 hours incubation; geometric mean; read-out: HEK293 TDO Kynurenine GMean IC50 (μM) (Cellular Assay)
T4 construct: expressed in transfected cells
In short: as §2

T1 sequence (P14902 whole entry): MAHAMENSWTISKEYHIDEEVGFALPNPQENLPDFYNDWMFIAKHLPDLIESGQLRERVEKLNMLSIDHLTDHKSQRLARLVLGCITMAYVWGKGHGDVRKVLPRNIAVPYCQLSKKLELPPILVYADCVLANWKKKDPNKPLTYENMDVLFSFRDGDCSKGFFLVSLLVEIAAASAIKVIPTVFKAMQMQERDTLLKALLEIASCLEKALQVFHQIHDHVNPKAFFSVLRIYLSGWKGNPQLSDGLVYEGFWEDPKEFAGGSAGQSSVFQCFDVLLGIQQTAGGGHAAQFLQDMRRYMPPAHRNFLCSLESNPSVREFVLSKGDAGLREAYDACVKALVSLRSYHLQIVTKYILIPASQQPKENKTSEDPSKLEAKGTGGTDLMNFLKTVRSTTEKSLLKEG
T3 sequence (P14902 whole entry): as above
T4 sequence (P48775 whole entry): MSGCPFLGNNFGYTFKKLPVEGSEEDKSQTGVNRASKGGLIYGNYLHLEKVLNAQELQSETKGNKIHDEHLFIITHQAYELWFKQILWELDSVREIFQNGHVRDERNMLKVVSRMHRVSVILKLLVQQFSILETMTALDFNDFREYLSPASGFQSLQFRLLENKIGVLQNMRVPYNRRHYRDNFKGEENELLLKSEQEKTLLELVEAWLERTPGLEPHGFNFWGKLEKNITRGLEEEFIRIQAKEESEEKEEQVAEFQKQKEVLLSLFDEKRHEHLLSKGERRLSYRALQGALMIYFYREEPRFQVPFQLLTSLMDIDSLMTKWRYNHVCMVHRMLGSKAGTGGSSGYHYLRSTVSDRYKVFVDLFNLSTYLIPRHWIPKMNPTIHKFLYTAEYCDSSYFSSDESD
T2 sequence (P48775 whole entry): as above

Compound	IC50 [1] [µM]	IC50 [2] [µM]	IC50 [3] [µM]	IC50 [4] [µM]
CC(C)(C1CCN(C(=O)Nc2ccccc2C#N)CC1)C(O)c1cc(Cl)cc2cn[nH]c12 (stereo not drawn) [Compound P-0180, 4-(1-(5-chloro-1H-indazol-7-yl)-1-hydroxy-2-methylpropan-2-yl)-N-(2-cyanophenyl)piperidine-1-carboxamide]	0.0001 to 10	0.0001 to 10	0.0001 to 10	0.0001 to 10
Cc1cccc(NC(=O)N2CCC(C(C)(C)C(O)c3cc(Cl)cc4cn[nH]c34)CC2)c1 (stereo not drawn) [Compound P-0181, 4-(1-(5-chloro-1H-indazol-7-yl)-1-hydroxy-2-methylpropan-2-yl)-N-(m-tolyl)piperidine-1-carboxamide]	0.0001 to 10	0.0001 to 10	0.0001 to 10	0.0001 to 10
COc1cccc(NC(=O)N2CCC(C(C)(C)C(O)c3cc(Cl)cc4cn[nH]c34)CC2)c1 (stereo not drawn) [Compound P-0182, 4-(1-(5-chloro-1H-indazol-7-yl)-1-hydroxy-2-methylpropan-2-yl)-N-(3-methoxyphenyl)piperidine-1-carboxamide]	0.0001 to 10	0.0001 to 10	0.0001 to 10	0.0001 to 10
COc1ccc(NC(=O)N2CCC(C(C)(C)C(O)c3cc(Cl)cc4cn[nH]c34)CC2)cc1 (stereo not drawn) [Compound P-0183, 4-(1-(5-chloro-1H-indazol-7-yl)-1-hydroxy-2-methylpropan-2-yl)-N-(4-methoxyphenyl)piperidine-1-carboxamide]	0.0001 to 10	0.0001 to 10	0.0001 to 10	0.0001 to 10
CC(C)(C1CCN(C(=O)Nc2ccccc2Cl)CC1)C(O)c1cc(Cl)cc2cn[nH]c12 (stereo not drawn) [Compound P-0184, 4-(1-(5-chloro-1H-indazol-7-yl)-1-hydroxy-2-methylpropan-2-yl)-N-(2-chlorophenyl)piperidine-1-carboxamide]	0.0001 to 10	0.0001 to 10	0.0001 to 10	0.0001 to 10
O=C(NC1CC1)N1CCC(C(F)(F)C(O)c2cc(Cl)cc3cn[nH]c23)CC1 (stereo not drawn) [Compound P-0185, 4-(2-(5-chloro-1H-indazol-7-yl)-1,1-difluoro-2-hydroxyethyl)-N-cyclopropylpiperidine-1-carboxamide]	0.0001 to 10	0.0001 to 10	0.0001 to 10	0.0001 to 10
OC(c1cc(Cl)cc2cn[nH]c12)C1(C2CCC2)CCC1 (stereo not drawn) [Compound P-0186, [1,1′-bi(cyclobutan)]-1-yl(5-chloro-1H-indazol-7-yl)methanol]	0.0001 to 10	0.0001 to 10	0.0001 to 10	0.0001 to 10
OC(c1cc(Cl)cc2cn[nH]c12)C1(C2CCCCC2)CC1 (stereo not drawn) [Compound P-0187, (5-chloro-1H-indazol-7-yl)(1-cyclohexylcyclopropyl)methanol]	0.0001 to 10	0.0001 to 10	0.0001 to 10	0.0001 to 10
OC(c1cc(Cl)cc2cn[nH]c12)C1(Cc2cccc(F)c2)CCC1 (stereo not drawn) [Compound P-0188, (5-chloro-1H-indazol-7-yl)(1-(3-fluorobenzyl)cyclobutyl)methanol]	0.0001 to 10	0.0001 to 10	0.0001 to 10	> 10
O=S1(=O)CC(O)(c2cc(Cl)cc3cn[nH]c23)C1 [Compound P-0189, 3-(5-chloro-1H-indazol-7-yl)-3-hydroxythietane 1,1-dioxide]	> 200	> 200	> 10	0.0001 to 10
CC1(C)[C@H]2CCC3(CC(O)(c4cc(Cl)cc5cn[nH]c45)C3)[C@@H]1C2 (stereo partly drawn) [Compound P-0190]	0.0001 to 10	0.0001 to 10	0.0001 to 10	0.0001 to 10
CC(C)(C1CCOCC1)C(O)c1cc(Cl)cc2cn[nH]c12 (stereo not drawn) [Compound P-0191, 1-(5-chloro-1H-indazol-7-yl)-2-methyl-2-(tetrahydro-2H-pyran-4-yl)propan-1-ol]	0.0001 to 10	0.0001 to 10	0.0001 to 10	0.0001 to 10
OC(c1cc(Cl)cc2cn[nH]c12)C(F)(F)C1CCOCC1 (stereo not drawn) [Compound P-0192, 1-(5-chloro-1H-indazol-7-yl)-2,2-difluoro-2-(tetrahydro-2H-pyran-4-yl)ethan-1-ol]	0.0001 to 10	0.0001 to 10	0.0001 to 10	0.0001 to 10
CC1(C)C2CCC(C2)[C@]12C[C@@](O)(c1cc(Cl)cc3cn[nH]c31)C2 (stereo partly drawn) [Compound P-0193, (2s,3′s)-3′-(5-chloro-1H-indazol-7-yl)-3,3-dimethylspiro[bicyclo[2.2.1]heptane-2,1′-cyclobutan]-3′-ol]	0.0001 to 10	0.0001 to 10	0.0001 to 10	0.0001 to 10
OC(c1cc(Cl)cc2cn[nH]c12)C1(C(F)F)CCC1 (stereo not drawn) [Compound P-0194, (5-chloro-1H-indazol-7-yl)(1-(difluoromethyl)cyclobutyl)methanol]	0.0001 to 10	0.0001 to 10	0.0001 to 10	0.0001 to 10
OC(c1cc(Cl)cc2cn[nH]c12)C1CC2(CCC2)C1 (stereo not drawn) [Compound P-0195, (5-chloro-1H-indazol-7-yl)(spiro[3.3]heptan-2-yl)methanol]	0.0001 to 10	0.0001 to 10	0.0001 to 10	0.0001 to 10
CC1(C)CC(C(O)c2cc(Cl)cc3cn[nH]c23)C1 (stereo not drawn) [Compound P-0196, (5-chloro-1H-indazol-7-yl)(3,3-dimethylcyclobutyl)methanol]	0.0001 to 10	0.0001 to 10	0.0001 to 10	0.0001 to 10
OCC1CCC(C(O)c2cc(Cl)cc3cn[nH]c23)CC1 (stereo not drawn) [Compound P-0197, (5-chloro-1H-indazol-7-yl)(4-(hydroxymethyl)cyclohexyl)methanol]	0.0001 to 10	0.0001 to 10	0.0001 to 10	0.0001 to 10
CC(C)(C1CCN(S(C)(=O)=O)CC1)C(O)c1cc(Cl)cc2cn[nH]c12 (stereo not drawn) [Compound P-0198, 1-(5-chloro-1H-indazol-7-yl)-2-methyl-2-(1-(methylsulfonyl)piperidin-4-yl)propan-1-ol]	0.0001 to 10	0.0001 to 10	0.0001 to 10	0.0001 to 10
CC(C)(C1CCCC1)C(O)c1cc(Cl)cc2cn[nH]c12 (stereo not drawn) [Compound P-0199, 1-(5-chloro-1H-indazol-7-yl)-2-cyclopentyl-2-methylpropan-1-ol]	0.0001 to 10	0.0001 to 10	0.0001 to 10	0.0001 to 10
OC1(c2cc(Cl)cc3cn[nH]c23)CC(c2ccccc2)C1 (stereo not drawn) [Compound P-0201, 1-(5-chloro-1H-indazol-7-yl)-3-phenylcyclobutan-1-ol]	0.0001 to 10	0.0001 to 10	> 10	> 10
CC(C)(CN1CCCC1)C(O)c1cc(Cl)cc2cn[nH]c12 (stereo not drawn) [Compound P-0202, 1-(5-chloro-1H-indazol-7-yl)-2,2-dimethyl-3-(pyrrolidin-1-yl)propan-l-ol]	10 to 100	0.0001 to 10	> 10	> 10
OC(c1cc(Cl)cc2cn[nH]c12)C(C1CCC1)C1CCC1 (stereo not drawn) [Compound P-0203, 1-(5-chloro-1H-indazol-7-yl)-2,2-dicyclobutylethan-1-ol]	0.0001 to 10	0.0001 to 10	0.0001 to 10	0.0001 to 10
OC(c1cc(Cl)cc2cn[nH]c12)C(C1CC1)C1CC1 (stereo not drawn) [Compound P-0204, 1-(5-chloro-1H-indazol-7-yl)-2,2-dicyclopropylethan-1-ol]	0.0001 to 10	0.0001 to 10	0.0001 to 10	0.0001 to 10
CC(O)(c1cc(Cl)cc2cn[nH]c12)C1CCCC1 (stereo not drawn) [Compound P-0205, 1-(5-chloro-1H-indazol-7-yl)-1-cyclopentylethan-1-ol]	10 to 100	10 to 100	> 10	0.0001 to 10
OC1(c2cc(Cl)cc3cn[nH]c23)CCC1 [Compound P-0206, 1-(5-chloro-1H-indazol-7-yl)cyclobutan-1-ol]	10 to 100	10 to 100	> 10	0.0001 to 10
CC1(C(O)c2c(Cl)ccc3cn[nH]c23)CCCCC1 (stereo not drawn) [Compound P-0207, (6-chloro-1H-indazol-7-yl)(1-methylcyclohexyl)methanol]	0.0001 to 10	10 to 100	0.0001 to 10	0.0001 to 10
OC(c1cc(Cl)cc2cn[nH]c12)C12CCC(CC1)CC2 (stereo not drawn) [Compound P-0208, bicyclo[2.2.2]octan-1-yl(5-chloro-1H-indazol-7-yl)methanol]	0.0001 to 10	0.0001 to 10	0.0001 to 10	0.0001 to 10
OC(c1cc(Cl)cc2cn[nH]c12)C12CC(C1)C2 (stereo not drawn) [Compound P-0209, bicyclo[1.1.1]pentan-1-yl(5-chloro-1H-indazol-7-yl)methanol]	0.0001 to 10	0.0001 to 10	0.0001 to 10	0.0001 to 10
OC(CC1CCOCC1)c1cc(Cl)cc2cn[nH]c12 (stereo not drawn) [Compound P-0210, 1-(5-chloro-1H-indazol-7-yl)-2-(tetrahydro-2H-pyran-4-yl)ethan-1-ol]	0.0001 to 10	0.0001 to 10	0.0001 to 10	0.0001 to 10
